From the Deep4Chem optical property database
Where “and” joins values, the source holds several entries; their conditions need not be identical. Equal entries are not always repeated.

Experiment: solvent given as SMILES

For `CC1(C)c2ccccc2N(c2ccc3c(c2)c2ccccc2c2nc4ccccc4nc32)c2ccccc21`, the fluorescence lifetime (in c1cc(-c2cccc(-n3c4ccccc4c4ccccc43)c2)cc(-n2c3ccccc3c3ccccc32)c1) was 68 ns.
`Nc1ccc2c(-c3ccc(C(=O)CN4C(=O)CCC4=O)cc3C(=O)[O-])c3ccc(=[NH2+])c(S(=O)(=O)[O-])c-3oc2c1S(=O)(=O)[O-]` showed a fluorescence lifetime (in O) of 4.1 ns.
Compound `N#Cc1cccc(N)c1` has a fluorescence lifetime (in C1CCCCC1) of 2.4 ns, a fluorescence lifetime (in CC#N) of 5.1 ns and a fluorescence lifetime (in CCCCCC) of 1.9 ns. For the same compound, the fluorescence lifetime (in CCO) was 6.2 ns, the fluorescence lifetime (in O) was 0.045 ns and the fluorescence lifetime (in OCC(F)(F)F) was 0.11 ns.
Work on `CC1(C)c2ccccc2N(c2ccc(S(=O)(=O)c3ccc(N4c5ccccc5C(C)(C)c5ccccc54)cc3)cc2)c2ccccc21` yielded a fluorescence lifetime (in C1COCCO1) of 21 ns, a fluorescence lifetime (in CC(C)=O) of 20 ns and a fluorescence lifetime (in Cc1ccccc1) of 20 ns. The fluorescence lifetime (in ClC(Cl)Cl) was 21 ns and the fluorescence lifetime (in c1cc(-n2c3ccccc3c3ccccc32)cc(-n2c3ccccc3c3ccccc32)c1) was 21 ns.
Compound `COc1ccc(-c2c3cc4ccccc4cc3c(C#Cc3ccccc3)c3cc4cc(C)sc4cc23)cc1` has a fluorescence lifetime (in ClCCl) of 11.6 ns.
With `O=C1c2ccc3c4ccc5c6c(ccc(c7ccc(c2c37)C(=O)N1c1ccc(O)cc1)c64)C(=O)N(c1ccc(O)cc1)C5=O` the fluorescence lifetime (in C1CCOC1) was 1.6 ns, the fluorescence lifetime (in CN1CCCC1=O) was 0.2 ns and the fluorescence lifetime (in CN(C)C=O) was 2.2 ns and 3.9 ns.
Compound `CCN(CC)c1ccc2cc(-c3nc4c5cccc6ccc7cccc(c7c65)c4n3-c3ccc(C(C)(C)C)cc3)c(=O)oc2c1` has a fluorescence lifetime (in ClCCl) of 11.4 ns.
With `C(=C\c1ccc(N(c2ccc(/C=C/c3ccc(N(c4ccccc4)c4ccccc4)cc3)cc2)c2ccc(/C=C/c3ccc(/C=C/c4ccc(N(c5ccc(/C=C/c6ccc(N(c7ccccc7)c7ccccc7)cc6)cc5)c5ccc(/C=C/c6ccc(N(c7ccccc7)c7ccccc7)cc6)cc5)cc4)c4nsnc34)cc2)cc1)/c1ccc(N(c2ccccc2)c2ccccc2)cc1` the fluorescence lifetime (in C1CCOC1) was 1.83 ns, the fluorescence lifetime (in CCOC(C)=O) was 1.85 ns and the fluorescence lifetime (in Cc1ccccc1) was 3.61 ns. The fluorescence lifetime (in ClC(Cl)Cl) was 2.08 ns and the fluorescence lifetime (in ClCCl) was 1.86 ns.
`COc1ccc2cc(/C=C/C3=CC(c4ccccc4)=[O+][B-](F)(F)O3)ccc2c1` gave a fluorescence lifetime (in ClCCl) of 2.53 ns.
Compound `CCOC(=O)c1ccccc1-c1c2ccc(=O)cc-2oc2cc(OC(=O)[C@H](CO[Si](C)(C)C(C)(C)C)NC(=O)OC(C)(C)C)ccc12` has a fluorescence lifetime (in C1CCOC1) of 2.3 ns, a fluorescence lifetime (in CC#N) of 2.7 ns and a fluorescence lifetime (in CCO) of 3.65 ns. The fluorescence lifetime (in CS(C)=O) was 4.03 ns.
`COc1ccc(-c2c3ccc([nH]3)c3nc(c(-c4ccc([N+](=O)[O-])cc4)c4ccc([nH]4)c4ccc([nH]4)c(-c4ccc(OC)cc4)c4ccc2o4)C=C3)cc1` showed a fluorescence lifetime (in C1CCOC1) of 0.66 ns, a fluorescence lifetime (in Cc1ccccc1) of 4.33 ns and a fluorescence lifetime (in c1ccccc1) of 4.2 ns.
For `Cn1c2ccccc2c(=O)c2ccccc21`, the fluorescence lifetime (in CS(C)=O) was 8.85 ns.
For `N#Cc1ccc(/C=C/c2ccc3ccc4cccc5ccc2c3c45)cc1`, the fluorescence lifetime (in C1CCOC1) was 1.82 ns, the fluorescence lifetime (in CC1CCCCC1) was 2.05 ns and the fluorescence lifetime (in CC#N) was 1.68 ns. For the same compound, the fluorescence lifetime (in CO) was 1.6 ns, the fluorescence lifetime (in Cc1ccccc1) was 1.76 ns and the fluorescence lifetime (in ClC(Cl)Cl) was 1.53 ns.
Compound `CCCCc1cc2cccc[n+]2[b-]2ccc(-c3cc[b-]4c(c3)c(CCCC)cc3cccc[n+]43)cc21` has a fluorescence lifetime (in C1CCCCC1) of 3.5 ns.
With `Cc1cc(-c2ccccc2C)cc(C)[o+]1` the fluorescence lifetime (in CC#N) was 12.2 ns and the fluorescence lifetime (in ClCCl) was 4.6 ns.
For `COC(=O)c1cc(=O)n(C)c2cc(-c3cc4c5c(c3)CCCN5CCC4)sc12`, the fluorescence lifetime (in ClCCl) was 2.25 ns.
`N#Cc1ccc(-c2ccc3c(c2)c2cc(-c4ccc(C#N)cc4)ccc2c2c3nc(-c3ccc(-c4ccc(N(c5ccccc5)c5ccccc5)cc4)cc3)n2-c2ccccc2)cc1` gave a fluorescence lifetime (in C1CCOC1) of 1.51 ns, a fluorescence lifetime (in CC#N) of 2.86 ns and a fluorescence lifetime (in CCCCCC) of 1.04 ns. The fluorescence lifetime (in CCOCC) was 1.29 ns.
`CC1=[O+][B-]2(OC(=O)C(=O)O2)OC(c2c3ccccc3cc3ccccc23)=C1` showed a fluorescence lifetime (in CC#N) of 2.1 ns and a fluorescence lifetime (in ClC(Cl)(Cl)Cl) of 1.2 ns.
Work on `Nc1ccc2c(C(F)(F)F)cc(=O)oc2c1` yielded a fluorescence lifetime (in C1CCC2CCCCC2C1) of 1.9 ns, a fluorescence lifetime (in C1CCCCC1) of 1.2 ns and a fluorescence lifetime (in C1COCCO1) of 4.65 ns. The fluorescence lifetime (in CC1CCCCC1) was 1.22 ns, the fluorescence lifetime (in CC#N) was 5.2 ns and 5.13 ns and the fluorescence lifetime (in CC(C)=O) was 4.97 ns. It also gave a fluorescence lifetime (in CC(C)O) of 5.28 ns, a fluorescence lifetime (in CCC(C)CC) of 0.842 ns and a fluorescence lifetime (in CCCC(C)C) of 0.406 ns. The fluorescence lifetime (in CCCCCC) was 0.854 ns, the fluorescence lifetime (in CCCCCCCCO) was 5.4 ns and the fluorescence lifetime (in CCCCCCO) was 5.29 ns. The fluorescence lifetime (in CCCCO) was 5.24 ns, the fluorescence lifetime (in CCO) was 5.38 ns and the fluorescence lifetime (in CCOC(C)=O) was 4.67 ns. The fluorescence lifetime (in CN(C)C=O) was 5.22 ns, the fluorescence lifetime (in CO) was 5.31 ns and the fluorescence lifetime (in CS(C)=O) was 5 ns.
`CN(C)c1ccc(-c2c(/C=C3/C=Cc4ccccc4N3C)c(=O)c2=O)cc1` gave a fluorescence lifetime (in C1CCCCC1) of 1.54 ns, a fluorescence lifetime (in Cc1ccccc1) of 2.48 ns and a fluorescence lifetime (in ClCCl) of 0.15 ns.
